Assay results: patent US8666671B2, “Method for determining drug-molecular combinations that modulate and enhance the therapeutic safety and efficacy of biological or pharmaceutical drugs” (Enhanced Pharmaceuticals, Inc., priority 2007, dated 2014)

Test system: rats
Assay: In vivo response of rats (dP/dt, contractility of the heart) to Lopressor, dobutamine and Dob/Met
Text: FIG. 2 presents empirical data of the in vivo response of rats to Lopressor® (the brand name for metoprolol used by Novartis Pharmaceuticals Corporation), dobutamine and the dobutamine/metoprolol specific combination ratio (Dob/Met);
The Lopressor® acts much like an inverse agonist or negative antagonist in that it produces a steep decrease in the animals' dP/dt, which is a measure of the contractility of the heart. Although in this experimental context metoprolol may be inhibiting the sympathetic tone of these animals due to the production of their endogenous catacholamines, it functions much like an inverse agonist or negative antagonist. The data is plotted as the dP/dt response versus the dosages of the drugs or combination (dobutamine with metoprolol, Dob/Met). The average beginning baseline response was about 7400 mmHg/sec. From this baseline, the Lopressor® decreased dP/dt to below 2000. For the agonist, dobutamine, the average response for the rats labeled 8-11 are plotted with the unfilled circles. At doses below about 50 micrograms/kg/min, the responses rise to a peak value of about 11000 mmHg/sec, but at further dosages these values decline to below 4000 mmHg/sec.
Examining the responses of metoprolol (Lopressor®) and dobutamine alone, one might think that in combination they would produce a more profound decline in the response to well below 2000 mmHg/sec. […] However, this method can predict these behaviors and is useful in determining other specific ratio combinations that produce a range of desirable responses in physiological systems.

## COCCc1ccc(OCC(O)CNC(C)C)cc1 (stereo not drawn) [Lopressor, metoprolol]
rats, in vivo, average beginning baseline about 7400 mmHg/sec, four individual rats
  dP/dt (contractility of the heart), decreased value: below 2000 mmHg/sec

## CC(CCc1ccc(O)cc1)NCCc1ccc(O)c(O)c1 (stereo not drawn) [dobutamine]
Rats 8-11, average response, doses above about 50 micrograms/kg/min
  dP/dt at further dosages (decline after peak): below 4000 mmHg/sec
Rats 8-11, average response, doses below about 50 micrograms/kg/min, baseline about 7400 mmHg/sec
  dP/dt peak value: about 11000 mmHg/sec
